Molecular target: T1, human ΔF508-CFTR (Homo sapiens, UniProt P13569, DEL508-508)
T1 construct: expressed in transfected cells
Test: CFTR-YFP High Throughput Assay (YFP halide flux in FRT cells)
Assay type: cell-based
Conditions: FRT cells expressing human ΔF508-CFTR and YFP; for EC50: forskolin stimulated
Outline: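 FRT cells stably co-expressing human ΔF508-CFTR and halide-sensitive YFP-H148Q/I152L were treated with compound […] for 24–26 h at 37 °C (corrector mode), washed, then stimulated with 20 μM forskolin plus 30 μM potentiator P3 for 60–120 min at room temperature. Iodide-induced YFP quench (ex 500/em 540 nm) rates came from least-squares fitting.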

T1 sequence (P13569 with tags, fused parts or gaps DEL508-508): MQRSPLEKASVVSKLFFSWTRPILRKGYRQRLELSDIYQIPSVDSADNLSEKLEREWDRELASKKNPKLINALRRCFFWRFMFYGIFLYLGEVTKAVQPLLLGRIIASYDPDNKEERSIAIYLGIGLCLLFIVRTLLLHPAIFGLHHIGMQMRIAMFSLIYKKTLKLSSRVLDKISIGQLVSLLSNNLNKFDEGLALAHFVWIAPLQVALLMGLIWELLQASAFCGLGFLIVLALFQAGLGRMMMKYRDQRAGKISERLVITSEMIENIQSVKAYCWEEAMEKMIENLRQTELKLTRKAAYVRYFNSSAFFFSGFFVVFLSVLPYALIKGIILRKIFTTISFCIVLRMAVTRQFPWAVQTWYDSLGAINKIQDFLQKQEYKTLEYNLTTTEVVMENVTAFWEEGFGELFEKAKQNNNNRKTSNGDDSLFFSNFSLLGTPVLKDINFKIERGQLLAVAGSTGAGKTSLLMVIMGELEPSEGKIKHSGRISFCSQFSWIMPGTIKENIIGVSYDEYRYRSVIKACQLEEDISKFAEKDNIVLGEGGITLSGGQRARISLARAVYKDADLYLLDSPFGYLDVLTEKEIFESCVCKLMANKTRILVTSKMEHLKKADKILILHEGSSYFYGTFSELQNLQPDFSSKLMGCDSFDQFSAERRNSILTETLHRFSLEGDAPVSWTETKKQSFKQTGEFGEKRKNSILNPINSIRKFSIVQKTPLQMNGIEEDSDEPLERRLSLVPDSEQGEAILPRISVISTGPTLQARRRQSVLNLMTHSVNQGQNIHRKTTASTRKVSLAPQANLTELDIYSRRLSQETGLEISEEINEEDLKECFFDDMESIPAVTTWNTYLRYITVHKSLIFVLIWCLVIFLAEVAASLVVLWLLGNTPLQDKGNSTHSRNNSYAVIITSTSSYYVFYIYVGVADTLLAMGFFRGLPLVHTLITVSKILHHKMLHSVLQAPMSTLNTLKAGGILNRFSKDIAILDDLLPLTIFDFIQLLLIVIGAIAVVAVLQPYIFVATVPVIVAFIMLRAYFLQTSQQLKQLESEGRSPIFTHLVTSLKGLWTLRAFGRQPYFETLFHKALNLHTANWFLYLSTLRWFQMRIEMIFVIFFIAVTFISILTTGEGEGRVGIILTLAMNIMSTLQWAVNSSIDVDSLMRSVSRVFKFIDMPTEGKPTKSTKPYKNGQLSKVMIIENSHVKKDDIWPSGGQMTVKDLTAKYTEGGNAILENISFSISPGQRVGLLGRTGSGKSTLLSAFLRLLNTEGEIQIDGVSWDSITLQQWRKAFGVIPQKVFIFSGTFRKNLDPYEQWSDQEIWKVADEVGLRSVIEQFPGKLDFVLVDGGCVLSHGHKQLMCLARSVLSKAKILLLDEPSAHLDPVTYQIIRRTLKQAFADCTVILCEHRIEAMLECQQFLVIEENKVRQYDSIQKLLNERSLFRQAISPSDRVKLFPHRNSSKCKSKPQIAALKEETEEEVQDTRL

| Substance | % Efficacy (Emax normalized to the positive control) | EC50 |
| --- | --- | --- |
| N-ethyl-N-(4-ethylphenyl)-2-(1-oxo-4-(4-sulfamoylphenyl)phthalazin-2(1H)-yl)acetamide [Example 12] | ++ (a range of 80%-30%) | > 20 µM |
| N-ethyl-N-(4-ethylphenyl)-2-(4-(3-hydroxyphenyl)-1-oxophthalazin-2(1H)-yl)acetamide [Example 8] | ++ (a range of 80%-30%) | < 10 µM |
| methyl 4-(3-(2-(ethyl(4-ethylphenyl)amino)-2-oxoethyl)-4-oxo-3,4-dihydrophthalazin-1-yl)benzoate [Example 14] | ++ (a range of 80%-30%) | > 20 µM |

More lines, now with the values ahead:

| % Efficacy (Emax normalized to the positive control) | EC50 | Substance |
| --- | --- | --- |
| ++ (a range of 80%-30%) | < 10 µM | N-(2,2-difluorobenzo[d][1,3]dioxol-5-yl)-N-ethyl-2-(4-(3-fluorophenyl)-1-oxophthalazin-2(1H)-yl)acetamide [Example 22] |
| + (a range of 30%-10%) | > 20 µM | N-ethyl-N-(4-ethylphenyl)-2-(4-(4-(methylsulfonyl)phenyl)-1-oxophthalazin-2(1H)-yl)acetamide [Example 15] |

— patent US9790215B2 (FLATLEY DISCOVERY LAB, LLC, priority 2013, dated 2017)
